According to patent US20250136596A1, “MEMBRANE-ASSOCIATED TYROSINE- AND THREONINE-SPECIFIC CDC2-INHIBITORY KINASE (PKMYT1) INHIBITORS AND USES THEREOF” (Insilico Medicine IP Limited, priority 2022, published 2025):

Target: PKMYT1 (Homo sapiens (Human), UniProt Q99640)
Assay: PKMYT1 HTRF Assay
Type: binding
Settings: Tracer 178, GST-Tb; compound 10 μM to 0.5 nM; read-out: MYT1 HTRF IC50
Experimental: Example A: PKMYT1 HTRF Assay
Compound serial dilution is performed by Echo, and the final concentrations vary from 10 μM to 0.5 nM. This was filled by the addition of 5 μL/well of Enzyme solution to the assay plate containing the compound. The plate was centrifuged at 1000 rpm for 1 minute, and incubate 15 minutes at 25 ? . Then 5 μL/well of tracer solution (Tracer 178) was added to initiate the reaction, and incubate for 60 minutes at 25° C. Next 5 μL GST-Tb was added into the assay plate, the plate was centrifuged at 1000 rpm for 1 minute, and incubate for 15 minutes at 25 ? . The assay plate was read on Envision.

Sequence of PKMYT1 (Q99640 whole entry): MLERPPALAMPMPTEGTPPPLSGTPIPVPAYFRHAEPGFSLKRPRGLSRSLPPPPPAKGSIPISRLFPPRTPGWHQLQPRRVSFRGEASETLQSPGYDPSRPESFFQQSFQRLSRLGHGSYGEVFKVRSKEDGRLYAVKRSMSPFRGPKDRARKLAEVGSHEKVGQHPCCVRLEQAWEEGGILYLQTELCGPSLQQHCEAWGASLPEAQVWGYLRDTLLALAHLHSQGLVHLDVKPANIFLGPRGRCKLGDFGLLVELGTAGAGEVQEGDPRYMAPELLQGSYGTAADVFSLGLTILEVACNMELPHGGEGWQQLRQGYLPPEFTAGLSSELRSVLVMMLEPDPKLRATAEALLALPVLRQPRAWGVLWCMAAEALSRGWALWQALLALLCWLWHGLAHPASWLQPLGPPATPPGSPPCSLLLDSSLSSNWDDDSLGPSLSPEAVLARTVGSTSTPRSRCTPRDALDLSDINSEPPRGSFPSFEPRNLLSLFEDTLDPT

## Cc1ccc(O)c(C)c1-c1cnc2[nH]c(-c3cnc(N4CCC(F)(F)C4)nc3)c(Cl)c2c1C#N [Example 38, (R)-3-chloro-2-(2-(3,3-difluoropyrrolidin-1-yl)pyrimidin-5-yl)-5-(3-hydroxy-2,6-dimethylphenyl)-1H-pyrrolo[2,3-b]pyridine-4-carbonitrile]
  IC50: < 10 nM

## Cc1ccc(O)c(C)c1-c1cnc2[nH]c(-c3cnc(N)nc3)cc2c1C#N [Example 39, (R)-2-(2-aminopyrimidin-5-yl)-5-(3-hydroxy-2,6-dimethylphenyl)-1H-pyrrolo[2,3-b]pyridine-4-carbonitrile]
  IC50: < 10 nM

## Cc1ccc(O)c(C)c1-c1cnc2[nH]c(-c3cnc(N)nc3)c(Cl)c2c1C#N [Example 40, (R)-2-(2-aminopyrimidin-5-yl)-3-chloro-5-(3-hydroxy-2,6-dimethylphenyl)-1H-pyrrolo[2,3-b]pyridine-4-carbonitrile]
  IC50: < 10 nM

## Cc1ccc(O)c(C)c1-c1cnc2[nH]c(-c3cnc(N4CC5CC4CO5)nc3)cc2c1C#N [Example 42, (R)-2-(2-((1S,4S)-2-oxa-5-azabicyclo[2.2.1]heptan-5-yl)pyrimidin-5-yl)-5-(3-hydroxy-2,6-dimethylphenyl)-1H-pyrrolo[2,3-b]pyridine-4-carbonitrile]
  IC50: < 10 nM

## Cc1ccc(O)c(C)c1-c1cnc2[nH]c(-c3cnc(N4CC5CC4CO5)nc3)c(Cl)c2c1C#N (stereo not shown) [Example 44, 2-(2-(2-oxa-5-azabicyclo[2.2.1]heptan-5-yl)pyrimidin-5-yl)-3-chloro-5-(3-hydroxy-2,6-dimethylphenyl)-1H-pyrrolo[2,3-b]pyridine-4-carbonitrile]
  IC50: < 10 nM

## Cc1ccc(O)c(C)c1-c1cnc2[nH]c(-c3cnc(N4CC(O)C4)nc3)cc2c1C#N [Example 45, (R)-5-(3-hydroxy-2,6-dimethylphenyl)-2-(2-(3-hydroxyazetidin-1-yl)pyrimidin-5-yl)-1H-pyrrolo[2,3-b]pyridine-4-carbonitrile]
  IC50: < 10 nM

## Cc1ccc(O)c(C)c1-c1cnc2[nH]c(-c3cnc(N4CC(O)C4)nc3)c(Cl)c2c1C#N [Example 46, (R)-3-chloro-5-(3-hydroxy-2,6-dimethylphenyl)-2-(2-(3-hydroxyazetidin-1-yl)pyrimidin-5-y1)-1H-pyrrolo[2,3-b]pyridine-4-carbonitrile]
  IC50: < 10 nM

## Cc1ccc(O)c(C)c1-c1cnc2[nH]c(-c3cnc(NC4CC4)nc3)cc2c1C#N [Example 47, (R)-2-(2-(cyclopropylamino)pyrimidin-5-yl)-5-(3-hydroxy-2,6-dimethylphenyl)-1H-pyrrolo[2,3-b]pyridine-4-carbonitrile]
  IC50: < 10 nM

## Cc1ccc(O)c(C)c1-c1cnc2[nH]c(-c3cnc(NC4CC4)nc3)c(Cl)c2c1C#N [Example 48, (R)-3-chloro-2-(2-(cyclopropylamino)pyrimidin-5-yl)-5-(3-hydroxy-2,6-dimethylphenyl)-1H-pyrrolo[2,3-b]pyridine-4-carbonitrile]
  IC50: < 10 nM

## Cc1ccc(O)c(C)c1-c1cnc2[nH]c(-c3cnc(N4CCC4)nc3)cc2c1C#N [Example 49, (R)-2-(2-(azetidin-1-yl)pyrimidin-5-y1)-5-(3-hydroxy-2,6-dimethylphenyl)-1H-pyrrolo[2,3-b]pyridine-4-carbonitrile]
  IC50: < 10 nM

## Cc1ccc(O)c(C)c1-c1cnc2[nH]c(-c3cnc(N(C)C)nc3)c(Cl)c2c1C#N [Example 50, (S)-3-chloro-2-(2-(dimethylamino)pyrimidin-5-yl)-5-(3-hydroxy-2,6-dimethylphenyl)-1H-pyrrolo[2,3-b]pyridine-4-carbonitrile]
  IC50: < 10 nM

## Cc1ccc(O)c(C)c1-c1cnc2[nH]c(-c3cnc(O)nc3)cc2c1C#N [Example 52, (R)-5-(3-hydroxy-2,6-dimethylphenyl)-2-(2-hydroxypyrimidin-5-yl)-1H-pyrrolo[2,3-b]pyridine-4-carbonitrile]
  IC50: < 10 nM

## Cc1ccc(O)c(C)c1-c1cnc2[nH]c(-c3cnc(OC4COC4)nc3)cc2c1C#N [Example 53, (S)-5-(3-hydroxy-2,6-dimethylphenyl)-2-(2-(oxetan-3-yloxy)pyrimidin-5-yl)-1H-pyrrolo[2,3-b]pyridine-4-carbonitrile]
  IC50: < 10 nM
